Assay results as given in US11072608B2, “Pesticidally active heterocyclic derivatives with sulphur containing substituents” (SYNGENTA PARTICIPATIONS AG, priority 2014, dated 2021).

Key:
Format in all cases: in vivo
[1] = tested on: Myzus persicae (green peach aphid); experiment: Example B6: activity against Myzus persicae, sucrose solution through Parafilm; details: 120 h, test rate of 12 ppm, 5 days after infestation
Excerpt: Example B6: Activity Against Myzus persicae (Green Peach Aphid)
Test compounds from 10,000 ppm DMSO stock solutions were applied by pipette into 24-well microtiter plates and mixed with sucrose solution. The plates were closed with a stretched Parafilm. A plastic stencil with 24 holes was placed onto the plate and infested pea seedlings were placed directly on the Parafilm. The infested plate was closed with a gel blotting paper and another plastic stencil and then turned upside down. The samples were assessed for mortality 5 days after infestation.

[2] = tested on: Spodoptera littoralis (Egyptian cotton leaf worm); experiment: Example B2: activity against Spodoptera littoralis, systemic via lettuce on agar; details: 144 h, application rate of 12.5 ppm, Spodoptera eggs, 6 days after infestation, read-out: control in at least one of the three categories (mortality, anti-feedancy or growth inhibition)
Excerpt: Example B2: Activity Against Spodoptera Littoralis (Egyptian Cotton Leaf Worm)
Test compounds were applied by pipette from 10,000 ppm DMSO stock solutions into 24-well plates and mixed with agar. Lettuce seeds were placed on the agar and the multi well plate was closed by another plate which contains also agar. After 7 days the roots have absorbed the compound and the lettuce has grown into the lid plate. The lettuce leafs were now cut off into the lid plate. Spodoptera eggs were pipetted through a plastic stencil on a humid gel blotting paper and the plate closed with it. The samples were assessed for mortality, anti-feedant effect and growth inhibition in comparison to untreated samples 6 days after infestation. The following compound gave an effect of at least 80% control in at least one of the three categories (mortality, anti-feedancy or growth inhibition) at an application rate of 12.5 ppm: P1, P4, P9, P12 and P13.

[3] = tested on: Plutella xylostella (diamond back moth); experiment: Example B3: activity against Plutella xylostella, artificial diet; details: 120 h, application rate of 200 ppm, L2 larvae, 5 days after infestation, read-out: effect in at least one of the two categories (mortality or growth inhibition)
Procedure: Example B3: Activity Against Plutella xylostella (Diamond Back Moth)
24-well microtiter plates with artificial diet were treated with aqueous test solutions prepared from 10,000 ppm DMSO stock solutions by pipetting. After drying, the plates were infested with L2 larvae (10 to 15 per well). The samples were assessed for mortality and growth inhibition in comparison to untreated samples 5 days after infestation. The following compound gave an effect of at least 80% in at least one of the two categories (mortality or growth inhibition) at an application rate of 200 ppm: P1, P4, P5, P6, P8, P9, P10, P11, P12 and P13.

[4] = tested on: Spodoptera littoralis (Egyptian cotton leaf worm); experiment: Example B1: activity against Spodoptera littoralis, cotton leaf disc spray; details: foliar, 72 h, application rate of 200 ppm, cotton leaf discs, L1 larvae, 3 days after infestation, read-out: control in at least one of the three categories (mortality, anti-feedancy or growth inhibition)
Procedure: Example B1: Activity Against Spodoptera littoralis (Egyptian Cotton Leaf Worm)
Cotton leaf discs were placed on agar in 24-well microtiter plates and sprayed with aqueous test solutions prepared from 10,000 ppm DMSO stock solutions. After drying the leaf discs were infested with five L1 larvae. The samples were assessed for mortality, anti-feedant effect, and growth inhibition in comparison to untreated samples 3 days after infestation. Control of Spodoptera littoralis by a test sample is when at least one of mortality, anti-feedant effect, and growth inhibition is higher than the untreated sample. The following compound gave an effect of at least 80% control in at least one of the three categories (mortality, anti-feedancy or growth inhibition) at an application rate of 200 ppm: P1, P4, P5, P8, P9, P10, P12 and P13.

[5] = tested on: Myzus persicae (green peach aphid); experiment: Example B5: activity against Myzus persicae, sunflower leaf disc spray; details: foliar, 144 h, application rate of 200 ppm, sunflower leaf discs, mixed ages, 6 days after infestation
Procedure: Example B5: Activity Against Myzus persicae (Green Peach Aphid)
Sunflower leaf discs were placed on agar in a 24-well microtiter plate and sprayed with aqueous test solutions prepared from 10,000 ppm DMSO stock solutions. After drying, the leaf discs were infested with an aphid population of mixed ages. The samples were assessed for mortality 6 days after infestation.

[6] = tested on: Diabrotica balteata (corn root worm); experiment: Example B4: activity against Diabrotica balteata, maize sprouts spray; details: 96 h, application rate of 200 ppm, L2 larvae, 4 days after infestation, read-out: effect in at least one of the two categories (mortality or growth inhibition)
Procedure: Example B4: Activity Against Diabrotica balteata (Corn Root Worm)
Maize sprouts, placed on an agar layer in 24-well microtiter plates were treated with aqueous test solutions prepared from 10,000 ppm DMSO stock solutions by spraying. After drying, the plates were infested with L2 larvae (6 to 10 per well). The samples were assessed for mortality and growth inhibition in comparison to untreated samples 4 days after infestation. The following compounds gave an effect of at least 80% in at least one of the two categories (mortality or growth inhibition) at an application rate of 200 ppm: P1, P4, P5, P6, P8, P9, P10, P11, P12 and P13.

[7] = tested on: Euschistus heros (neotropical brown stink bug); experiment: Example B8: activity against Euschistus heros, soybean leaf spray; details: 120 h, application rate of 200 ppm, N-2 nymphs, 5 days after infestation
Procedure: Example B8: Activity Against Euschistus heros (Neotropical Brown Stink Bug)
Soybean leaf on agar in 24-well microtiter plates were sprayed with aqueous test solutions prepared from 10,000 ppm DMSO stock solutions. After drying the leaf were infested with N-2 nymphs. The samples were assessed for mortality 5 days after infestation.

CCSc1cc(C2CC2)cnc1-c1nc2cc(C(F)(F)F)cnc2n1C [Compound P1, 2-(5-cyclopropyl-3-ethylsulfanyl-2-pyridyl)-3-methyl-6-(trifluoromethyl)imidazo[4,5-b]pyridine]
≥ 80%: mortality at 12 ppm [1] | control at 12.5 ppm [2] | percent effect (mortality or growth inhibition) at 200 ppm [3] | percent control (mortality, anti-feedancy or growth inhibition) at 200 ppm [4] | mortality at 200 ppm [5] | percent effect (mortality or growth inhibition) at 200 ppm [6] | mortality at 200 ppm [7]
